Source: patent US10058566B2, “Sulfated polygulonic acid polysaccharide or pharmaceutical salt thereof, preparation method therefor and use thereof” (SHANGHAI INSTITUTE OF MATERIA MEDICA CHINESE ACADEMY OF …, priority 2013, dated 2018)

Columns and labels:
[1] = test system: lung metastasis of human breast cancer MDA-MB-435 orthotopic xenografts; assay: Lung metastasis of human breast cancer MDA-MB-435 orthotopic xenografts; type: in vivo, nude mice (BALB/cA); details: 5 mg/kg, intravenous injection once per week for 7 continuous weeks
Method: (§1) Human breast cancer MDA-MB-435 cells (from American Type Culture Collection, ATCC, Rockville, Md., USA) in an exponential growth phase at a concentration of 2.5×10^7 cells/ml were inoculated into the second left mammary fat pad of 4-5-week old female nude mice (BALB/cA, provided by Shanghai Institute of Materia Medica, Chinese Academy of Sciences). When the tumors were grown to the size of 100-200 mm^3, the animals were evenly divided according tumor volumes into a negative control group, a doxorubicin injection (Adriamycin, ADM) treatment group (positive control group), and 5 mg/kg and 20 mg/kg PGAS treatment groups (PGAS experimental groups), 20 mice/group. […] In the experiments, a vernier caliper was used to measure the diameter of tumors twice a week, and the tumor volume (V) was calculated following the formula below: V=½×a×b^2
The animals were sacrificed 1 week after discontinuation of dosing. […] The number of lung metastasis nodes per lung was observed and recorded under a dissecting microscope. […] A part of lungs and orthotopic tumor tissues were fixed in 10% formalin, and angiogenesis in tumor tissues was determined by H&E staining and immunohistochemistry.
(§2) At this point of time, the animals are sacrificed and subjected to anti-tumor effect evaluation. […] Further, the effect of PGAS on angiogenesis in vivo was evaluated by immunohistochemical staining.

[2] = test system: human breast cancer MDA-MB-435 orthotopic xenografts; assay: Growth of human breast cancer MDA-MB-435 orthotopic xenografts in nude mice; type: in vivo, nude mice (BALB/cA); details: 5 mg/kg, intravenous injection once per week for 7 continuous weeks
Method: as §1
in which, a and b represent the length and the width of tumors, respectively. The relative tumor volume (RTV) was calculated based on the measured results, using the calculation formula: RTVt=Vt/Vo; in which, V0 is the measured tumor volume when animals were divided to different dosing (i.e. d0), and Vt is the tumor volume on the day of measurement. […]
as §2

COc1cccc2c1C(=O)c1c(O)c3c(c(O)c1C2=O)C[C@@](O)(C(=O)CO)C[C@@H]3O[C@H]1C[C@H](N)[C@H](O)[C@H](C)O1 [ADM, Doxorubicin]
inhibition rate on lung metastasis [1]: 89.8% | relative tumor proliferation rate T/C [2]: 21.8%
